Measurements taken from patent publication US6124380A, “Metal containing e-coat catalysts optionally with tin catalysts” (priority 1999, dated 2000).

Legend:
[1] = tested on: Flathead Minnow; test: Aquatic Toxicity Flathead Minnow; type: in vivo
Source text: (§1) Generally, the toxicity of tin compounds increases as the organic substituents on the tin atom increase from one to two to three whereas there is a decrease in toxicity with increasing alkyl chain length where the organotin compound is alkyl substituted. However, the extraordinary decrease in toxicity in TOTO due to alkyl chain length is quite unexpected. The relatively low toxicity of TOTO which makes it especially suitable in industrial coating applications is illustrated by the following: […]

[2] = tested on: Daphnia; test: Aquatic Toxicity Daphnia; type: in vivo
Source text: as §1

[3] = Acute Dermal toxicity; type: in vivo
Source text: as §1

[4] = Toxicity of TOTO compared with TBTO; settings: in vivo
Source text: as §1

[5] = tested on: Rabbits; test: Primary Eye Irritation; type: in vivo
Source text: as §1

[6] = tested on: Salmonella and E. Coli; test: Mutation Assays Ames/Salmonella and E. Coli; type: cell-based
Source text: as §1

[7] = tested on: Rabbits; test: Primary Dermal Irritation; type: in vivo
Source text: as §1

[8] = tested on: Rats; test: Acute Oral toxicity; type: in vivo
Source text: as §1

Compound | Aquatic Toxicity 96 h LC50 Flathead Minnow (comment, TBTO) [1] | Aquatic Toxicity 48 h LC50 Daphnia (comment, TBTO) [2] | Aquatic Toxicity 96 h LC50 Flathead Minnow ([1]; solubility limit) | Acute Dermal, comment ([3]; No more than Slightly) | Acute Dermal LD50 ([3]; in vivo, topical or ocular) | Toxicity relative to TBTO [4] | Primary Eye Irritation, comment ([5]; rabbits) | Primary Eye Irritation ([5]; score out of 110.0, rabbits) | Aquatic Toxicity 48 h LC50 Daphnia ([2]; solubility limit) | Mutation Assays [6] | Primary Dermal Irritation, comment ([7]; rabbits) | Primary Dermal Irritation ([7]; score out of 8.0, rabbits) | Acute Oral LD50 [8] | Acute Oral, comment [8]
CCC[CH2][Sn]([CH2]CCC)([CH2]CCC)[O][Sn]([CH2]CCC)([CH2]CCC)[CH2]CCC [TBTO, Bis(tributyltin) oxide] | 0.05 µg/mL | 0.002 µg/mL | – | – | – | – | – | – | – | – | – | – | – | –
CCCCCCC[CH2][Sn]([CH2]CCCCCCC)([CH2]CCCCCCC)[O][Sn]([CH2]CCCCCCC)([CH2]CCCCCCC)[CH2]CCCCCCC [TOTO, Bis(trioctyltin)oxide] | – | – | > 13,500 ug/L | Slightly | > 2000 mg/kg | significantly less toxic than TBTO | Slightly Irritating | 2.6 | > 87,000 ug/L | Not Mutagenic | Slightly Irritating | 1.75 | > 5000 mg/kg | Practically Nontoxic
